Assays:
Melanocortin receptor 5 = Melanocortin receptor 5 (Homo sapiens, UniProt P33032); type: cell membranes, HEK293, Membrane; further: in other assays of this panel Not Active means under 50% inhibition at 10 µM
[1] = molecular target: Mitogen-activated protein kinase 3 (Homo sapiens, UniProt P27361); assay: DRUGMATRIX: Protein Serine/Threonine Kinase, ERK1 enzyme inhibition (substrate: Myelin Basic Protein); set-up: species or system Escherichia coli; conditions: Not Active = under 50% inhibition at 10 µM
Chain of Mitogen-activated protein kinase 3 (P27361 whole entry): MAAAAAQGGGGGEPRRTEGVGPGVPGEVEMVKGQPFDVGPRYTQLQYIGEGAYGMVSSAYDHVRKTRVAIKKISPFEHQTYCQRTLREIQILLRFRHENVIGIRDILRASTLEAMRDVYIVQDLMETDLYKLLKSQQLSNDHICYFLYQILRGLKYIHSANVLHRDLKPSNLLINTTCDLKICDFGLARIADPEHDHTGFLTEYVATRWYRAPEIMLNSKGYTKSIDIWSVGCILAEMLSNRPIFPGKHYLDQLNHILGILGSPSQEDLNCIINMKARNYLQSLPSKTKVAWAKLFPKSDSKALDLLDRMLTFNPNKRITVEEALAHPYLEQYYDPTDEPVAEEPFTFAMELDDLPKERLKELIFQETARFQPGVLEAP

[2] = molecular target: Mitogen-activated protein kinase 1 (Homo sapiens, UniProt P28482); assay: DRUGMATRIX: Protein Serine/Threonine Kinase, ERK2 enzyme inhibition (substrate: Myelin Basic Protein); set-up: species or system Escherichia coli; conditions: Not Active = under 50% inhibition at 10 µM
Chain of Mitogen-activated protein kinase 1 (P28482 whole entry): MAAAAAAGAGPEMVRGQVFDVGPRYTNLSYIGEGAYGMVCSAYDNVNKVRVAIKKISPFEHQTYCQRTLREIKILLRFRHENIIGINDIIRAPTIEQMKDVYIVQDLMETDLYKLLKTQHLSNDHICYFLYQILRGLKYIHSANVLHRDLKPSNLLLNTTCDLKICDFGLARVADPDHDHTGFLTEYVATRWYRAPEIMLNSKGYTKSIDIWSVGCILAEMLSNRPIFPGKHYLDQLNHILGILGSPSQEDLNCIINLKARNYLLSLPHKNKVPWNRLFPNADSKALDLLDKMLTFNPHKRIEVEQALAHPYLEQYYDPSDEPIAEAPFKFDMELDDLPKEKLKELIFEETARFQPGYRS

[3] = DRUGMATRIX: Glutamate, AMPA radioligand binding (ligand: [3H] AMPA); type: cell membranes, Rattus norvegicus, Wistar, Cerebral cortex, Membrane; conditions: Not Active = under 50% inhibition at 10 µM
[4] = molecular target: T1, C-X-C chemokine receptor type 2 (Homo sapiens, UniProt P25025); type: cell membranes, Membrane; conditions: cho-k1; further: in other assays of this panel Not Active means under 50% inhibition at 10 µM
T1 sequence (P25025 whole entry): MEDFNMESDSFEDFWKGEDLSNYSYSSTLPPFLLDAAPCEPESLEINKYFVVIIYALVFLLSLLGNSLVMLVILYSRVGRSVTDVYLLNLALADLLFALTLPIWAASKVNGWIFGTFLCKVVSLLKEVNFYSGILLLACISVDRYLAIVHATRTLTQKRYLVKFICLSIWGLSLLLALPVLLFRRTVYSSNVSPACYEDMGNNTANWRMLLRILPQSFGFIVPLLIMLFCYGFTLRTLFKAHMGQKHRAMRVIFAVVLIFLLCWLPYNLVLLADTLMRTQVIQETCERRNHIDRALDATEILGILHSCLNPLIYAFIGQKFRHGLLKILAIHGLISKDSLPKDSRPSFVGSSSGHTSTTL

Nitric oxide synthase 1 = Nitric oxide synthase 1 (Rattus norvegicus, UniProt P29476); type: tissue-based, Cerebellum; further: in other assays of this panel Not Active means under 50% inhibition at 10 µM
Chain of Nitric oxide synthase 1 (P29476 whole entry): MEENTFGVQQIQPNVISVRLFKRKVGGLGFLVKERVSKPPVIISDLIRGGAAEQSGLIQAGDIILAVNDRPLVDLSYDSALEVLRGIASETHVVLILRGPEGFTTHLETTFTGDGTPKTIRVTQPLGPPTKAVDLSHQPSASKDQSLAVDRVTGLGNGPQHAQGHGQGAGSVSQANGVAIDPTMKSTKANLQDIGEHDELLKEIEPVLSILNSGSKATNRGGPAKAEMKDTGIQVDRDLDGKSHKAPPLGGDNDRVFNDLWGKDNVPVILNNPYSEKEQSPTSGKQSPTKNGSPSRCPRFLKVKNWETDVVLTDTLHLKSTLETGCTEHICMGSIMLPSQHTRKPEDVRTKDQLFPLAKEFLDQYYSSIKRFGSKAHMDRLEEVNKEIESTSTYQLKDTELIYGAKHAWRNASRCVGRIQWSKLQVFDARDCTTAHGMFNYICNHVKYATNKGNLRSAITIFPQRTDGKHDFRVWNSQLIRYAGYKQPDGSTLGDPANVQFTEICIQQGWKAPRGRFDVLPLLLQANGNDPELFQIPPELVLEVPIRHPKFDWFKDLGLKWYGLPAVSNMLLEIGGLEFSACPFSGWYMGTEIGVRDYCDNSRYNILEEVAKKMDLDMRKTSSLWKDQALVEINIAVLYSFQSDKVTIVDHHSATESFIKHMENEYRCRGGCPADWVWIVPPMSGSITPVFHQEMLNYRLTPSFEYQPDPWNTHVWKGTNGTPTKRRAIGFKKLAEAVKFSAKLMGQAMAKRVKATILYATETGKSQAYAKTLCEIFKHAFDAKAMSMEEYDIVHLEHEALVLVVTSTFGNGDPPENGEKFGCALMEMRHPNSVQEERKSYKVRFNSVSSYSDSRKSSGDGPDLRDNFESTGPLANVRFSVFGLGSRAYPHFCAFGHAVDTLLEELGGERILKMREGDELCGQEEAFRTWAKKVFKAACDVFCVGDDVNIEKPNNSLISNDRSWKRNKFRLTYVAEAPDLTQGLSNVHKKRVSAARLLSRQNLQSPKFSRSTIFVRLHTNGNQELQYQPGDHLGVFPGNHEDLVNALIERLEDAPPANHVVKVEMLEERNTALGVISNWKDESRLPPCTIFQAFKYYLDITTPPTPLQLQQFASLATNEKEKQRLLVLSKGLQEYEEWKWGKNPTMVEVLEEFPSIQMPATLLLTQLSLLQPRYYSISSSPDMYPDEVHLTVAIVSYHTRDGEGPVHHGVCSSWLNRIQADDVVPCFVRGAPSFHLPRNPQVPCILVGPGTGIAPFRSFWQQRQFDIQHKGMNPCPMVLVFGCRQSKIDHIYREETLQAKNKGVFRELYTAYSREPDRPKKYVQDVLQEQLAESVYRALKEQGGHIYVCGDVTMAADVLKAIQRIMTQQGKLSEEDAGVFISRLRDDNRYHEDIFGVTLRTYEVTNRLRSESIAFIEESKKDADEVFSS

Chain of Melanocortin receptor 5 (P33032 whole entry): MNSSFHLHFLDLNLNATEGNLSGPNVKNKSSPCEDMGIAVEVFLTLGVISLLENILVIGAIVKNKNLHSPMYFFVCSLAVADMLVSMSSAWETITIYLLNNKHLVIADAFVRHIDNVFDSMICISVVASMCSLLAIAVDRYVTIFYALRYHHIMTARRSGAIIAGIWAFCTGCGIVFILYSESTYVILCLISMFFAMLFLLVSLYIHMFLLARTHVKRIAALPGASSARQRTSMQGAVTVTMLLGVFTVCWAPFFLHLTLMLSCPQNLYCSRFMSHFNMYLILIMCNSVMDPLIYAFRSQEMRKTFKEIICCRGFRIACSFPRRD

Row | Molecule | IC50 (Melanocortin receptor 5; hek293) | IC50 [1] | IC50 [2] | IC50 [3] | Ki [3] | IC50 [4] | IC50 (Nitric oxide synthase 1) | IC50 (Melanocortin receptor 5; read-out: IC50) [µM] | Ki (Melanocortin receptor 5; read-out: Ki) [µM] | Ki (Melanocortin receptor 5; hek293) | Ki [1] | Ki [2] | Ki [4] | Ki (Nitric oxide synthase 1) | IC50 (Melanocortin receptor 5; hek293, read-out: IC50) [µM] | Ki (Melanocortin receptor 5; hek293, read-out: Ki) [µM]
1 | COC(=O)Nc1nc2ccc(C(=O)c3cccs3)cc2[nH]1 [NOCODAZOLE] | Not Active | Not Active | Not Active | Not Active | Not Active | Not Active | Not Active |  |  |  |  |  |  |  |  | 
2 | C#CC1(O)CC[C@H]2[C@@H]3CCC4=CC(=O)CC[C@@H]4[C@H]3CC[C@@]21CC (stereo not given in full) [NORGESTREL] | Not Active | Not Active | Not Active | Not Active | Not Active | Not Active | Not Active |  |  |  |  |  |  |  |  | 
3 | COC(=O)Nc1nc2ccc([S+]([O-])c3ccccc3)cc2[nH]1 (stereo not given) [OXFENDAZOLE] | Not Active | Not Active | Not Active | Not Active | Not Active | Not Active | Not Active |  |  |  |  |  |  |  |  | 
4 | CC(=O)O[C@H]1C(=O)[C@@]2(C)[C@H]([C@H](OC(=O)c3ccccc3)[C@]3(O)C[C@H](OC(=O)[C@H](O)[C@@H](NC(=O)c4ccccc4)c4ccccc4)C(C)=C1C3(C)C)[C@]1(OC(C)=O)CO[C@@H]1C[C@@H]2O [PACLITAXEL] |  | Not Active | Not Active | Not Active | Not Active | Not Active | Not Active | 17.1 | 16.1 |  |  |  |  |  |  | 
5 | C[n+]1ccc(-c2cc[n+](C)cc2)cc1.[Cl-].[Cl-] [PARAQUAT DICHLORIDE] | Not Active | Not Active | Not Active | Not Active | Not Active | Not Active | Not Active |  |  |  |  |  |  |  |  | 
6 | CC(C)NCC(O)COc1cccc2[nH]ccc12 (stereo not given) [PINDOLOL] | Not Active | Not Active | Not Active | Not Active | Not Active | Not Active | Not Active |  |  |  |  |  |  |  |  | 
7 | CCn1cc(C(=O)O)c(=O)c2cnc(N3CCCC3)nc21 [PIROMIDIC ACID] | Not Active | Not Active | Not Active | Not Active | Not Active | Not Active | Not Active |  |  |  |  |  |  |  |  | 
8 | C[n+]1ccccc1/C=N/O.[Cl-] [PRALIDOXIME CHLORIDE] | Not Active | Not Active | Not Active | Not Active | Not Active | Not Active | Not Active |  |  |  |  |  |  |  |  | 
9 | COc1cc2nc(N3CCN(C(=O)c4ccco4)CC3)nc(N)c2cc1OC [PRAZOSIN] | Not Active | Not Active | Not Active | Not Active | Not Active | Not Active | Not Active |  |  |  |  |  |  |  |  | 
10 | C[C@]12C=CC(=O)C=C1CC[C@@H]1[C@@H]2[C@@H](O)C[C@@]2(C)[C@H]1CC[C@]2(O)C(=O)CO [PREDNISOLONE] | Not Active | Not Active | Not Active | Not Active | Not Active | Not Active | Not Active |  |  |  |  |  |  |  |  | 
11 | CC(=O)[C@H]1[C@H](C#N)C[C@H]2[C@@H]3CC=C4C[C@@H](O)CC[C@]4(C)[C@H]3CC[C@@]21C [PREGNENOLONE CARBONITRILE] | Not Active | Not Active | Not Active | Not Active | Not Active | Not Active | Not Active |  |  |  |  |  |  |  |  | 
12 | CCCN(CCC)S(=O)(=O)c1ccc(C(=O)O)cc1 [PROBENECID] | Not Active | Not Active | Not Active | Not Active | Not Active | Not Active | Not Active |  |  |  |  |  |  |  |  | 
13 | CCCNCC(O)COc1ccccc1C(=O)CCc1ccccc1 (stereo not given) [PROPAFENONE] | Not Active | Not Active | Not Active | Not Active | Not Active | Not Active | Not Active |  |  |  |  |  |  |  |  | 
14 | CCCOc1ccc(C(=O)OCCN(CC)CC)cc1N [PROPARACAINE] | Not Active | Not Active | Not Active | Not Active | Not Active | Not Active | Not Active |  |  |  |  |  |  |  |  | 
15 | CC(C)c1cccc(C(C)C)c1O [PROPOFOL] | Not Active | Not Active | Not Active | Not Active | Not Active | Not Active | Not Active |  |  |  |  |  |  |  |  | 
16 | C[C@@H]1O[C@@H](O[C@@H]2C=C3CC[C@@H]4[C@H](CC[C@]5(C)[C@@H](c6ccc(=O)oc6)CC[C@]45O)[C@@]3(C)CC2)[C@H](O)[C@H](O)[C@H]1O [PROSCILLARIDIN] | Not Active | Not Active | Not Active | Not Active | Not Active | Not Active | Not Active |  |  |  |  |  |  |  |  | 
17 | Oc1cccc(O)c1O [PYROGALLOL] | Not Active | Not Active | Not Active | Not Active | Not Active | Not Active | Not Active |  |  |  |  |  |  |  |  | 
18 | AURANOFIN | Not Active | Not Active | Not Active | Not Active | Not Active | Not Active | Not Active |  |  | Not Active | Not Active | Not Active | Not Active | Not Active |  | 
19 | GADOPENTETATE DIMEGLUMINE | Not Active | Not Active | Not Active | Not Active | Not Active | Not Active | Not Active |  |  | Not Active | Not Active | Not Active | Not Active | Not Active |  | 
20 | GENTAMICIN | Not Active | Not Active | Not Active | Not Active | Not Active | Not Active | Not Active |  |  | Not Active | Not Active | Not Active | Not Active | Not Active |  | 
21 | GRAMICIDIN |  | Not Active | Not Active | Not Active | Not Active | Not Active | Not Active |  |  |  | Not Active | Not Active | Not Active | Not Active | 2.01 | 1.89
22 | NYSTATIN | Not Active | Not Active | Not Active | Not Active | Not Active | Not Active | Not Active |  |  | Not Active | Not Active | Not Active | Not Active | Not Active |  | 
